The test system of assay [1] is L. infantum promastigotes. In words: Cell cycle analysis by flow cytometry (propidium iodide). Type of assay: cell-based, Leishmania infantum. Conditions: 1 μM single dose, 0, 8, 24, 48 h. Here is the method: One million promastigotes untreated or treated with 1 μM of different indenoisoquinolines were harvested by centrifugation after 0, 8, 24 and 48 h exposure. Promastigotes were washed twice with PBS and fixed by 1 h incubation with 70% methanol at 4 °C. After incubation, cells were centrifuged, washed again with PBS and resuspended in 0.5 mL of citrate buffer (45 mM MgCl2, 20 mM MOPS, 30 mM sodium citrate, 0.1% Triton X-100, pH = 7). Finally, samples with RNAase (50 μg/mL) and propidium iodide ([…]) were incubated at 37 °C during 30 min and analyzed at 589 nm by flow cytometry (Cyan ADP Dako).
A general note: A flow cytometer gives signals particle by particle.

The subject of assay [2] is iRFP L. infantum amastigotes infecting mouse splenocytes. The experiment in a line: Antileishmanial activity on iRFP L. infantum amastigotes in ex vivo murine splenic explants. Type of assay: cell-based, Leishmania infantum. The procedure:
Five-week BALB/c female mice infected intraperitoneally with 1.5 × 10^9 metacyclic iRFP L. infantum promastigotes were sacrificed to eviscerate their spleens, which were processed to obtain a suspension of primary splenocytes. Briefly, freshly dissected spleens were washed with cold phosphate-buffered saline (PBS), cut in small pieces and incubated for 20 min with 5 mL of 2 mg/mL collagenase D (Sigma) prepared in buffer (10 mM HEPES, pH 7.4, 150 mM NaCl, 5 mM KCl, 1 mM MgCl2 and 1.8 mM CaCl2). Then, the cell suspension was passed through a 100 μm cell strainer, harvested by centrifugation (500×g for 7 min at 4 °C), washed twice with PBS, and resuspended in RPMI medium (Gibco) supplemented with 10 mM HEPES, 1 mM sodium pyruvate, 1xRPMI 1640 vitamin mix, 10% (v/v) FBS, 50 U/mL penicillin and 50 μg/mL streptomycin. The cell suspension was cultured in 384-well optical bottom black plates (Thermo Scientific) at 37 °C under 5% CO2 atmosphere.
The antileishmanial activity of the compounds was tested both in promastigotes and in amastigotes infecting mouse splenocytes. For this purpose, 384-well optical bottom black plates (Thermo Scientific) were seeded either with free-living iRFP L. infantum promastigotes or with splenic explants infected with iRFP L. infantum amastigotes, which were incubated at 26 °C or 37 °C, respectively. The viability of both iRFP L. infantum stages was measured by recording the fluorescence emitted by viable cells at 708 nm in an Odyssey (Li-Cor) infrared imaging system after a 72-h period of incubation with different concentrations of the compounds. Dose-response curves were obtained by plotting the infrared fluorescence emission of viable parasites vs. different concentrations of testing compounds and were fitted by nonlinear analysis using the Sigma-Plot 10.0 statistical package. The reduction of infrared emission with respect to the negative control was used to determine the 50% effective concentration to kill the parasites (EC50). Both controls and treated groups were tested with DMSO (drug vehicle) concentrations below 0.1%. All compounds and controls were assayed in triplicate.

The target of assay [3] is T1, human Top IB (hTopIB) (Homo sapiens, UniProt P11387).
T1 construct: made in house
T1 sequence (P11387 1-765): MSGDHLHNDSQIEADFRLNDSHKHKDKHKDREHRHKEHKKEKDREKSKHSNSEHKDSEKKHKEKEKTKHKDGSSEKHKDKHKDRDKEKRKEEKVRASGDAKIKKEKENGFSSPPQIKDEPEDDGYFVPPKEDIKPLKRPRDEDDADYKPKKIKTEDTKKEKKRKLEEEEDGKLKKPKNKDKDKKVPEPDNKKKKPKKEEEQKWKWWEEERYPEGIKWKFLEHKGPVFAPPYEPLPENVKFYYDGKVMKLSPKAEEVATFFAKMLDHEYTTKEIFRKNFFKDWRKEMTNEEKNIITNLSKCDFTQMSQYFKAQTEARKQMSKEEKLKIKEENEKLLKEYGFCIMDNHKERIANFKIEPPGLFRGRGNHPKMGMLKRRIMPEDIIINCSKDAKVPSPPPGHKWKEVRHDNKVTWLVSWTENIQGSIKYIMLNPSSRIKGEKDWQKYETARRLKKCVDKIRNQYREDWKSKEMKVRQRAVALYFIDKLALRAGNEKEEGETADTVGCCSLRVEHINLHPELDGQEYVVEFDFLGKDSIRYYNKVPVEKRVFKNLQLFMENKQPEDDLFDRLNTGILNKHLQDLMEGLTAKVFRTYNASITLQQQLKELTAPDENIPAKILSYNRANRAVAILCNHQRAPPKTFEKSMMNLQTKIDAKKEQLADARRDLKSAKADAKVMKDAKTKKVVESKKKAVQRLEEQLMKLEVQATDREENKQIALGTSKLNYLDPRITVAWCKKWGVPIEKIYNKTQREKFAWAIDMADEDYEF
The experiment in a line: Relaxation of supercoiled pSK DNA by recombinant hTopIB. Type of assay: biochemical. The following applies: Table 1. Here is the method: Expression and purification of LTopIB and hTopIB were carried out according to a previously standardized protocol ([Villa et al., 2003]). The effect of indenoisoquinolines (compounds 1 to 20) on recombinant LTopIB and hTopIB was determined by measuring the relaxation of negatively supercoiled pBluescript-SK DNA plasmid (pSK). Briefly, in a total volume of 20 μL, 100 U of recombinant TopIB were incubated with 0.5 μg of pSK DNA in 10 mM Tris-HCl buffer (pH 7.5), 5 mM MgCl2, 5 mM dithiothreitol (DTT), 0.1 mM EDTA, […] bovine serum albumin, and 150 mM KCl. Different concentrations of indenoisoquinolines were also added. Following a 4-min incubation period at 25 °C, reactions were stopped with 1% (w/v) SDS, and incubated for one extra hour at 37 °C in the presence of 1 mg/mL proteinase K. Subsequently, samples were extracted with 1 vol phenol-chloroform mixture and were loaded on a 1% agarose gel containing 0.1 μg/mL ethidium bromide. The gel was run for 16 h at 4 V/cm, and the images were acquired using a G-Box system (Syngene, United Kingdom).

`NCCCn1c2c(c3ccccc3c1=O)C(=O)c1ccccc1-2` [Compound 2]: in assay [1], the “effect on cell cycle of promastigotes” value is “did not arrest the cell cycle”. Further, the “SI (Selectivity Index)” value in assay [2] (CC50 (splenocytes)/EC50 (amastigotes)) was found to be 4.9. Besides, the EC50 (as a rule, the midpoint of the concentration-response curve) in assay [2] (Leishmania infantum, Splenocyte, splenic-infecting iRFP L. infantum amastigotes, 72 h, 37 °C, read-out: EC50 (μM) L. infantum amastigotes) was 0.12 ± 0.05 µM. The hTopIB inhibition result in assay [3] is reported as “++ (inhibition at 10 μM)”.

(Values after PMC6796659, “Topoisomerase IB poisons induce histone H2A phosphorylation as a response to DNA damage in Leishmania infantum” (International Journal for Parasitology: Drugs and Drug …, 2019).)
